Data: ChEMBL document CHEMBL5150026, “Selective butyrylcholinesterase inhibition by isatin dimers and 3-indolyl-3-hydroxy-2-oxindole dimers” (Bioorg Med Chem Lett, 2022)
Calls of active or inactive are those of the source. The rule behind the calls is not given here.

Tests used:
Acetylcholinesterase = Acetylcholinesterase (Electrophorus electricus, UniProt O42275)
Description: Inhibition of electric eel AChE by Ellman's method

[1] = molecular target: Cholinesterase (Equus caballus) (UniProt P81908); assay: Mixed reversible inhibition of equine serum BuChE assessed as decrease in Vmax and increase in Km at 3.13 to 12.5 uM by Lineweaver-burk plot analysis; details: dose 3.13-12.5 µM
Sequence of Cholinesterase (Equus caballus) (P81908 whole entry): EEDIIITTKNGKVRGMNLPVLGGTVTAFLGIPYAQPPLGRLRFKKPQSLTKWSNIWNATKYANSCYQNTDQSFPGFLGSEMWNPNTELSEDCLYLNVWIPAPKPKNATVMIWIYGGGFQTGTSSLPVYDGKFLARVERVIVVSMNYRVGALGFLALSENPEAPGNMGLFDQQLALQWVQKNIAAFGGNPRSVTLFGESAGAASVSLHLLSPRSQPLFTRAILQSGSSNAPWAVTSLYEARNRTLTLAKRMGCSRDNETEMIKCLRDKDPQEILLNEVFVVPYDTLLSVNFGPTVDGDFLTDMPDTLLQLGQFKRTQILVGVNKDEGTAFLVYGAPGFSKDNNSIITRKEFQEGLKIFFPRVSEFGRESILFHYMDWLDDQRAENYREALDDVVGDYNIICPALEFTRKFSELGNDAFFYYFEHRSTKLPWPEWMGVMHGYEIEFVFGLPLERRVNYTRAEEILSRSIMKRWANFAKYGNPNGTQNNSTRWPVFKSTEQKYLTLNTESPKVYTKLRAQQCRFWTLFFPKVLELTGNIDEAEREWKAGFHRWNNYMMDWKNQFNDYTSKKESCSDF

Cholinesterase = Cholinesterase (Equus caballus, UniProt P81908)
Sequence of Cholinesterase (P81908 whole entry): as above
Description: Inhibition of equine serum BuChE by Ellman's method

[2] = molecular target: Cholinesterase (Equus caballus) (UniProt P81908); assay: Potency index,ratio of isatin IC50 to test compound IC50 for inhibition of equine serum BuChE
[3] = molecular target: Cholinesterase (Equus caballus) (UniProt P81908); assay: Mixed reversible inhibition of equine serum BuChE assessed as decrease in Vmax and increase in Km at 1.56 to 6.25 uM by Lineweaver-burk plot analysis; details: dose 1.56-6.25 µM

Sequence of Acetylcholinesterase (O42275 whole entry): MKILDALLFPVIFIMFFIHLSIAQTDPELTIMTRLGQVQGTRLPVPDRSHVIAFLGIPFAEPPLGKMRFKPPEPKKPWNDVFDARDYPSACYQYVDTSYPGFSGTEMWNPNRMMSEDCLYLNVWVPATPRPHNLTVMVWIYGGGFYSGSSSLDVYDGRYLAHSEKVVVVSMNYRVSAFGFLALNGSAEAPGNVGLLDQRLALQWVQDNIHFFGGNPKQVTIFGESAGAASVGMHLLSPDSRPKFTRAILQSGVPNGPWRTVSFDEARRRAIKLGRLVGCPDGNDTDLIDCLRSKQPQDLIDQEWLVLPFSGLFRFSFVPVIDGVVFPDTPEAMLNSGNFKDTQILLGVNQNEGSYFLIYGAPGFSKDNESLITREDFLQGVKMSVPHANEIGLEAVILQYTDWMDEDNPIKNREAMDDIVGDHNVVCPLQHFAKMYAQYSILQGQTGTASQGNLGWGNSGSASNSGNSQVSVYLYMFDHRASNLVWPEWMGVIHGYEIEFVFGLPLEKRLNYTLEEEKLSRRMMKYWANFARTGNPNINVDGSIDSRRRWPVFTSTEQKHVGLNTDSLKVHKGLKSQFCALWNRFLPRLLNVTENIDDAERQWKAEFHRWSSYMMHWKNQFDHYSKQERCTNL

SMILES | IC50 (Acetylcholinesterase) | inhibition [1] | IC50 (Cholinesterase) | Ratio IC50 [2] | inhibition [3]
O=C1N(CCCCCN2C(=O)C(O)(c3c[nH]c4ccccc34)c3ccccc32)c2ccccc2C1(O)c1c[nH]c2ccccc12 (centres undefined) | > 50 µM | Active | – | – | –
O=C1C(=O)N(CCCN2C(=O)C(=O)c3ccccc32)c2ccccc21 | > 125 µM | – | > 125 µM | – | –
O=C1N(CCCCCCN2C(=O)C(O)(c3c[nH]c4ccccc34)c3ccccc32)c2ccccc2C1(O)c1c[nH]c2ccccc12 (centres undefined) | > 50 µM | – | 14 µM | – | –
O=C1C(=O)N(CCCCCN2C(=O)C(=O)c3ccccc32)c2ccccc21 | > 50 µM | – | 7.56 µM | – | –
O=C1N(CCCN2C(=O)C(O)(c3c[nH]c4ccccc34)c3ccccc32)c2ccccc2C1(O)c1c[nH]c2ccccc12 (centres undefined) | > 50 µM | – | 6.47 µM | – | –
O=C1N(CCCCCCCCN2C(=O)C(O)(c3c[nH]c4ccccc34)c3ccccc32)c2ccccc2C1(O)c1c[nH]c2ccccc12 (centres undefined) | > 50 µM | – | > 25 µM | – | –
O=C1Nc2ccccc2C1=O [ISATIN] | > 1000 µM | – | > 1000 µM | – | –
O=C1N(CCCCCCCN2C(=O)C(O)(c3c[nH]c4ccccc34)c3ccccc32)c2ccccc2C1(O)c1c[nH]c2ccccc12 (centres undefined) | > 50 µM | – | 13.2 µM | – | –
O=C1N(CCN2C(=O)C(O)(c3c[nH]c4ccccc34)c3ccccc32)c2ccccc2C1(O)c1c[nH]c2ccccc12 (centres undefined) | > 50 µM | – | > 50 µM | – | –
O=C1N(CCCCN2C(=O)C(O)(c3c[nH]c4ccccc34)c3ccccc32)c2ccccc2C1(O)c1c[nH]c2ccccc12 (centres undefined) | > 50 µM | – | 11.8 µM | – | –
O=C1C(=O)N(CCCCCCN2C(=O)C(=O)c3ccccc32)c2ccccc21 | > 50 µM | – | > 50 µM | – | –
O=C1C(=O)N(CCCCCCCN2C(=O)C(=O)c3ccccc32)c2ccccc21 | > 50 µM | – | 3.2 µM | 300 | Active
O=C1C(=O)N(CCCCN2C(=O)C(=O)c3ccccc32)c2ccccc21 | > 125 µM | – | 34.7 µM | – | –
O=C1C(=O)N(CCN2C(=O)C(=O)c3ccccc32)c2ccccc21 | > 125 µM | – | > 125 µM | – | –
O=C1Nc2ccccc2C1(O)c1c[nH]c2ccccc12 (centres undefined) | 1300 µM | – | 357 µM | – | –
O=C1C(=O)N(CCCCCCCCN2C(=O)C(=O)c3ccccc32)c2ccccc21 | > 50 µM | – | > 50 µM | – | –
